Measurements published in patent publication US9511059B2, “Antiviral compounds” (priority 2013, dated 2016).

What was measured:
Assay in all cases: microbe, parasite or virus in culture
[1] = tested on: Pseudotyped HCV GT1b particles (HCVpp); format: cell-based, Hepatitis C virus GT1b Con1 strain; conditions: Hepatitis C virus, 72 h, read-out: HCVpp GT-1b (EC50, μM)
[2] = tested on: pseudotyped VSV G particles (VSVpp); format: cell-based; conditions: Vesicular stomatitis virus, 72 h, read-out: VSVpp (EC50, μM)
[3] = tested on: Pseudotyped HCV GT1a particles (HCVpp); format: cell-based, Hepatitis C virus GT1a H77 strain; conditions: Hepatitis C virus, 72 h, read-out: HCVpp GT-1a (EC50, μM)

SMILES | EC50 [1] | EC50 [2] | EC50 [3]
CN(c1ccc(Sc2ccccc2)c(Cl)c1)c1n[nH]c(N)n1 [Compound 24, N3-(3-chloro-4-(phenylthio)phenyl)-N3-methyl-1H-1,2,4-triazole-3,5-diamine] | 42.1 µM | 100 µM | 
Nc1nc(Nc2ccc(Sc3ccccc3)c(Cl)c2)n[nH]1 [Compound 22, N3-(3-chloro-4-(phenylthio)phenyl)-1H-1,2,4-triazole-3,5-diamine] | 0.229 µM | 14.3 µM | 1.65 µM
COc1ccc(S(=O)(=O)c2c(Cl)cc(Nc3n[nH]c(N)n3)cc2Cl)cc1 [Compound 18, N*3*-[3,5-Dichloro-4-(4-methoxy-benzenesulfonyl)-phenyl]-1H-[1,2,4]triazole-3,5-diamine] |  | 0.1 µM | 0.126 µM
COc1ccc(Sc2c(Cl)cc(Nc3n[nH]c(N)n3)cc2C(F)(F)F)cc1 [Compound 17, N*3*-[3-Chloro-4-(4-methoxy-phenylsulfanyl)-5-trifluoromethyl-phenyl]-1H-[1,2,4]triazole-3,5-diamine] |  | 34.9 µM | 1.04 µM
Nc1nc(Nc2cc(Cl)cc(Oc3ccccc3)c2)n[nH]1 [Compound 25, N*3*-(3-Chloro-5-phenoxy-phenyl)-1H-[1,2,4]triazole-3,5-diamine] | 1.9 µM | 100 µM | 
Nc1nc(Nc2cc(Cl)cc(OCc3ccccc3)c2)n[nH]1 [Compound 21, N*5*-(3-Benzyloxy-5-chloro-phenyl)-1H-[1,2,4]triazole-3,5-diamine] |  | 39.2 µM | 1.67 µM
N#Cc1ccc([S+]([O-])c2c(Cl)cc(Nc3n[nH]c(N)n3)cc2Cl)cc1 (stereo not shown) [Compound 13, 4-[4-(5-Amino-1H-[1,2,4]triazol-3-ylamino)-2,6-dichloro-benzenesulfinyl]-benzonitrile] |  | 10 µM | 0.674 µM
N#Cc1ccc(Sc2c(Cl)cc(Nc3n[nH]c(N)n3)cc2Cl)cc1 [Compound 12, 4-[4-(5-Amino-1H-[1,2,4]triazol-3-ylamino)-2,6-dichloro-phenylsulfanyl]-benzonitrile] |  | 3.4 µM | 0.077 µM
Nc1nc(Nc2ccc(Nc3ccccc3)c(Cl)c2)n[nH]1 [Compound 2, N*3*-(3-Chloro-4-phenylamino-phenyl)-1H-[1,2,4]triazole-3,5-diamine] | 0.393 µM | 86 µM | 2.44 µM
Nc1nc(Nc2cc(Cl)c([S+]([O-])c3ccccc3)c(Cl)c2)n[nH]1 (stereo not shown) [Compound 5, N*3*-(4-Benzenesulfinyl-3,5-dichloro-phenyl)-1H-[1,2,4]triazole-3,5-diamine] |  | 25.3 µM | 0.293 µM
Nc1nc(Nc2ccc(S(=O)(=O)c3ccccc3)c(Cl)c2)n[nH]1 [Compound 23, N3-(3-chloro-4-(phenylsulfonyl)phenyl)-1H-1,2,4-triazole-3,5-diamine] | 0.517 µM | 40.1 µM | 4.62 µM
Nc1n[nH]c(Nc2cc(F)c(Sc3ccccc3)c(C(F)(F)F)c2)n1 [Compound 1, N^5-(3-Fluoro-4-phenylsulfanyl-5-trifluoromethylphenyl)-1H-[1,2,4]-triazole-3,5-diamine] |  | 13.2 µM | 0.31 µM
CS(=O)(=O)c1ccc(Oc2c(Cl)cc(Nc3n[nH]c(N)n3)cc2C(F)(F)F)cc1 [Compound 20, N*3*-[3-Chloro-4-(4-methanesulfonyl-phenoxy)-5-trifluoromethyl-phenyl]-1H-[1,2,4]triazole-3,5-diamine] |  | 10 µM | 0.232 µM
CS(=O)(=O)c1ccc(Oc2c(Cl)cc(Nc3n[nH]c(N)n3)cc2Cl)cc1 [Compound 19, N*3*-[3,5-Dichloro-4-(4-methanesulfonyl-phenoxy)-phenyl]-1H-[1,2,4]triazole-3,5-diamine] | 0.008 µM | 20.2 µM | 0.019 µM
Nc1nc(Nc2cc(Cl)c(Sc3ccc(C(F)(F)F)cc3)c(Cl)c2)n[nH]1 [Compound 7, N3-(3,5-dichloro-4-(4-(trifluoromethyl)phenylthio)phenyl)-1H-1,2,4-triazole-3,5-diamine] | 0.009 µM | 100 µM | 
Nc1nc(Nc2cc(Cl)c(Oc3ccccn3)c(Cl)c2)n[nH]1 [Compound 26, N*3*-[3,5-Dichloro-4-(pyridin-2-yloxy)-phenyl]-1H-[1,2,4]triazole-3,5-diamine] |  | 43.5 µM | 1.88 µM
Nc1nc(Nc2cc(Cl)c(S(=O)(=O)c3ccccc3)c(Cl)c2)n[nH]1 [Compound 6, N*3*-(4-Benzenesulfonyl-3,5-dichloro-phenyl)-1H-[1,2,4]triazole-3,5-diamine] |  | 34 µM | 0.139 µM
Nc1nc(Nc2cc(Cl)c([S+]([O-])c3cccc(C(F)(F)F)c3)c(Cl)c2)n[nH]1 (stereo not shown) [Compound 11, N^3-[3,5-Dichloro-4-(3-trifluoromethyl-benzenesulfinyl)-phenyl]-1H-[1,2,4]triazole-3,5-diamine] |  | 10 µM | 0.61 µM
Nc1nc(Nc2cc(Cl)c(Sc3ccccc3)c(Cl)c2)n[nH]1 [Compound 4, N*3*-(3,5-Dichloro-4-phenylsulfanyl-phenyl)-1H-[1,2,4]triazole-3,5-diamine] |  | 3.3 µM | 0.076 µM
COC(=O)c1ccc(Sc2c(Cl)cc(Nc3n[nH]c(N)n3)cc2C(F)(F)F)cc1 [Compound 15, 4-[4-(5-Amino-1H-[1,2,4]triazol-3-ylamino)-2-chloro-6-trifluoromethyl-phenylsulfanyl]-benzoic acid methyl ester] |  | 49.8 µM | 0.133 µM
N#Cc1ccc(S(=O)(=O)c2c(Cl)cc(Nc3n[nH]c(N)n3)cc2Cl)cc1 [Compound 14, 4-[4-(5-Amino-1H-[1,2,4]triazol-3-ylamino)-2,6-dichloro-benzenesulfonyl]-benzonitrile] |  | 10 µM | 0.366 µM
Nc1nc(Nc2ccc(Oc3ccccc3)c(Cl)c2)n[nH]1 [Compound 3, N*3*-(3-Chloro-4-phenoxy-phenyl)-1H-[1,2,4]triazole-3,5-diamine] | 0.329 µM | 35.5 µM | 2.77 µM
Nc1nc(Nc2cc(Cl)c(Sc3cccc(C(F)(F)F)c3)c(Cl)c2)n[nH]1 [Compound 9, N3-(3,5-dichloro-4-(3-(trifluoromethyl)phenylthio)phenyl)-1H-1,2,4-triazole-3,5-diamine] |  | 3 µM | 0.15 µM
Nc1nc(Nc2cc(Cl)c([S+]([O-])c3ccc(C(F)(F)F)cc3)c(Cl)c2)n[nH]1 (stereo not shown) [Compound 8, N3-(3,5-dichloro-4-(4-(trifluoromethyl)phenylsulfinyl)phenyl)-1H-1,2,4-triazole-3,5-diamine] | 0.079 µM | 10 µM | 0.114 µM
COc1ccc(Sc2c(Cl)cc(Nc3n[nH]c(N)n3)cc2Cl)cc1 [Compound 16, N*3*-[3,5-Dichloro-4-(4-methoxy-phenylsulfanyl)-phenyl]-1H-[1,2,4]triazole-3,5-diamine] |  | 40.2 µM | 1.02 µM
Nc1nc(Nc2cc(Cl)c(Sc3ccccc3C(F)(F)F)c(Cl)c2)n[nH]1 [Compound 10, N*3*-[3,5-Dichloro-4-(2-trifluoromethyl-phenylsulfanyl)-phenyl]-1H-[1,2,4]triazole-3,5-diamine] |  | 7.7 µM | 0.263 µM
